# Laboratory results published in patent publication US9610285B2, “Compositions for controlling food intake and uses therefor” (UNIVERSITY OF FLORIDA RESEARCH FOUNDATION, INCORPORATED, priority 2011, dated 2017).
# Structures can show the parent of a compound that is named as a salt. Marks after values point to notes of the source that are not given here.
# Key:
# Assay type in all cases: in vivo, rat
# Male Sprague-Dawley rats [1] = assay: Total caloric intake following drug injections in binge-eating rats (Example 2); settings: for Effect on total caloric intake, in words: one-way ANOVA over saline, low and high dose
# Source text: (§1) Male Sprague-Dawley rats, 250-300 g at the onset of the experiment, were obtained from Taconic Farms (Germantown, N.Y., USA). Rats were housed individually on a 12-h reversed light/dark cycle and given 1 wk to acclimate before diet training began.
# (§2) The rats were divided into groups (n=10/group) matched for body weight and assigned to one of the following dietary conditions: (1) Binge Sugar, (2) Binge Fat or (3) Binge Sugar-Fat. All rats received palatable diets and standard rodent chow (LabDiet #5001, PMI Nutrition International, Richmond, Ind., USA; 10% fat, 20% protein, 70% carbohydrate, 3.02 kcal/g) for 12 h/day, starting 4 h after the onset of the dark cycle. Water was available ad libitum.
# (§3) All palatable foods were mixed in the laboratory. The Binge Sugar group had access to a 10% (w/v) sucrose solution (Domino® Granulated Pure Cane Sugar, dissolved in tap water, 0.4 kcal/mL), the Binge Fat group had access to a 35% (w/v) fat emulsion (3.1 kcal/mL) and the Binge Sugar-Fat group had access to a 10% (w/v) sugar solution and 35% (w/v) fat emulsion (3.5 kcal/mL). Both emulsions were made with Wesson® Pure Vegetable Oil in tap water and 0.6% (w/v) Emplex, a commercially available emulsifier (American Ingredients Company, Kansas City, Mo., USA). Palatable food intakes were recorded daily. Chow intake was recorded weekly. Body weights were taken at the beginning and end of the 21-day diet period.
# (§4) After 21 days on these diets, drug testing began. During testing, diet regimens were maintained. Approximately 3.5 h into the dark cycle, animals were weighed and intraperitoneal (i.p.) injections of drug were given (according to the schedule below). 30 min later (4 h into the dark cycle) palatable food and chow were made available to the rats. For the first 3 days, rats were acclimated to handling and daily vehicle injections (0.9% saline, Hospira, Lake Forest, Ill., USA, i.p. 1 mL/kg). For days 4-16 of drug testing, either vehicle or drug was alternatively administered, starting with drug on day 4. […] Intake of palatable food and chow was measured hourly after injection for 4 h and again at the end of the 12-h access period.
# (§5) Palatable food and standard chow intakes following saline injections between days 4-16 were averaged. All data were analyzed using one-way ANOVAs with post hoc Multiple Comparisons, when appropriate. In Tables 4-7, values having the same letter superscript are statistically different from one another.
# rats = assay: Binge eating rats, palatable food and chow intake (Example 1, FIGS. 1-5); settings: drug alone, i.p., figure legends
# Experimental: Baclofen (at 1.0 and 1.8 mg/kg, administered i.p.)
# Baclofen+naltrexone (mixed low and mixed high)
# 1. Binge Sugar (10% sucrose solution, w/v)
# 2. Binge Fat (35% oil emulsion, w/v)
# 3. Binge Sugar/Fat (10% sucrose, 35% oil emulsion, w/v)
# Groups of animals (rats) were maintained on their diets for 3 weeks to establish stable binge eating behavior. After this period of time, the rats were administered three days of daily i.p. injections of saline (to acclimate to the injection procedure), and sugar/chow intake was measured after the first hour of access and then hourly for the next 3 hours, as well as at the end of the 12-h access period. After this three-day period, rats were given baclofen+naloxone, and measurements taken as described above. Other dosage amounts of baclofen and naloxone were tested, as were the effects of these compounds alone (with measurements being performed as described above). Vehicle injections were performed between the various tests in order to allow for suitable clearance of compounds from the animals. […] Thus, the treatment appears ideally suited for food addicts, hedonic overeaters and changes food choice but not appetite.
# Male Sprague-Dawley rats [2] = assay: Standard chow intake following drug injections in binge-eating rats (Example 2); settings: for Effect on standard chow intake, in words: one-way ANOVA over saline, low and high dose
# Source text: as §1, §2, §3, §4, §5
# Male Sprague-Dawley rats [3] = assay: Palatable food intake following drug injections in binge-eating rats (Example 2); settings: for Effect on palatable food (fat) intake, in words / Effect on palatable food (sugar) intake, in words / Effect on palatable food (sugar-fat) intake, in words: one-way ANOVA over saline, low and high dose
# Source text: as §1, §2, §3, §4, §5
# [4] = Binge Fat group, 1 h, high dose (naltrexone 1.0 mg/kg, baclofen 1.8 mg/kg, or both, i.p.)
# [5] = Binge Fat group, 1 h, low dose (naltrexone 0.1 mg/kg, baclofen 1.0 mg/kg, or both, i.p.)
# [6] = Binge Fat group, 12 h, high dose (naltrexone 1.0 mg/kg, baclofen 1.8 mg/kg, or both, i.p.)
# [7] = Binge Fat group, 12 h, low dose (naltrexone 0.1 mg/kg, baclofen 1.0 mg/kg, or both, i.p.)
# [8] = Binge Sugar group, 1 h, high dose (naltrexone 1.0 mg/kg, baclofen 1.8 mg/kg, or both, i.p.)
# [9] = Binge Sugar group, 1 h, low dose (naltrexone 0.1 mg/kg, baclofen 1.0 mg/kg, or both, i.p.)
# [10] = Binge Sugar group, 12 h, high dose (naltrexone 1.0 mg/kg, baclofen 1.8 mg/kg, or both, i.p.)
# [11] = Binge Sugar group, 12 h, low dose (naltrexone 0.1 mg/kg, baclofen 1.0 mg/kg, or both, i.p.)
# [12] = Binge Sugar-Fat group, 1 h, high dose (naltrexone 1.0 mg/kg, baclofen 1.8 mg/kg, or both, i.p.)
# [13] = Binge Sugar-Fat group, 1 h, low dose (naltrexone 0.1 mg/kg, baclofen 1.0 mg/kg, or both, i.p.)
# [14] = Binge Sugar-Fat group, 12 h, high dose (naltrexone 1.0 mg/kg, baclofen 1.8 mg/kg, or both, i.p.)
# [15] = Binge Sugar-Fat group, 12 h, low dose (naltrexone 0.1 mg/kg, baclofen 1.0 mg/kg, or both, i.p.)
smiles,measurement,setting,value
"O=C1CC[C@@]2(O)[C@H]3Cc4ccc(O)c5c4[C@@]2(CCN3CC2CC2)[C@H]1O5 [Naltrexone, naltrexone hydrochloride]",1-H Total Caloric Intake,Male Sprague-Dawley rats [1]; [4],19.9 ± 3.2 kcal
same,1-H Total Caloric Intake,Male Sprague-Dawley rats [1]; [5],20.2 ± 3.0 kcal
same,12-H Total Caloric Intake,Male Sprague-Dawley rats [1]; [6],90.3 ± 8.3 kcal
same,12-H Total Caloric Intake,Male Sprague-Dawley rats [1]; [7],84.0 ± 7.9 kcal
same,1-H Total Caloric Intake,Male Sprague-Dawley rats [1]; [8],22.6 ± 1.7 kcal
same,1-H Total Caloric Intake (Kcal),Male Sprague-Dawley rats [1]; [9],29.9 ± 3.9^a Kcal
same,12-H Total Caloric Intake,Male Sprague-Dawley rats [1]; [10],89.4 ± 6.4 kcal
same,12-H Total Caloric Intake,Male Sprague-Dawley rats [1]; [11],85.4 ± 7.5 kcal
same,1-H Total Caloric Intake,Male Sprague-Dawley rats [1]; [12],24.8 ± 4.4 kcal
same,1-H Total Caloric Intake,Male Sprague-Dawley rats [1]; [13],23.9 ± 2.7 kcal
same,12-H Total Caloric Intake,Male Sprague-Dawley rats [1]; [14],110.7 ± 10.7 kcal
same,12-H Total Caloric Intake,Male Sprague-Dawley rats [1]; [15],97.0 ± 5.7 kcal
same,"Effect on total caloric intake, in words","Male Sprague-Dawley rats [1]; Fat group, 1 h",no effect
same,"Effect on total caloric intake, in words","Male Sprague-Dawley rats [1]; Fat group, 12 h",no effect
same,"Effect on total caloric intake, in words","Male Sprague-Dawley rats [1]; Sugar group, 1 h",significantly increased
same,"Effect on total caloric intake, in words","Male Sprague-Dawley rats [1]; Sugar group, 12 h",differences were no longer evident
same,"Effect on total caloric intake, in words","Male Sprague-Dawley rats [1]; Sugar-Fat group, 1 h",no effect
same,"Effect on total caloric intake, in words","Male Sprague-Dawley rats [1]; Sugar-Fat group, 12 h",no effect
same,Effect on intake of oil-containing palatable foods,"rats; oil containing groups (Binge Fat, Binge Sugar/Fat)",trend toward reducing food intake
same,Effect on binge eating of sugar,rats; sugar-binging rats,no effect
same,1-H Chow Intake,Male Sprague-Dawley rats [2]; [4],10.1 ± 1.2 kcal
same,1-H Chow Intake,Male Sprague-Dawley rats [2]; [5],8.5 ± 1.1 kcal
same,12-H Chow Intake,Male Sprague-Dawley rats [2]; [6],37.0 ± 3.4 kcal
same,12-H Chow Intake,Male Sprague-Dawley rats [2]; [7],34.1 ± 4.3 kcal
same,1-H Chow Intake,Male Sprague-Dawley rats [2]; [8],20.1 ± 1.3 kcal
same,1-H Chow Intake,Male Sprague-Dawley rats [2]; [9],25.5 ± 3.2 kcal
same,12-H Chow Intake (Kcal),Male Sprague-Dawley rats [2]; [10],78.6 ± 4.7^b Kcal
same,12-H Chow Intake (Kcal),Male Sprague-Dawley rats [2]; [11],73.7 ± 5.1^a Kcal
same,1-H Chow Intake,Male Sprague-Dawley rats [2]; [12],7.1 ± 0.9 kcal
same,1-H Chow Intake,Male Sprague-Dawley rats [2]; [13],6.6 ± 1.0 kcal
same,"Effect on standard chow intake, in words","Male Sprague-Dawley rats [2]; Binge Sugar-Fat group, 1 h",no effect
same,12-H Chow Intake,Male Sprague-Dawley rats [2]; [14],27.4 ± 2.6 kcal
same,12-H Chow Intake,Male Sprague-Dawley rats [2]; [15],26.4 ± 1.9 kcal
same,"Effect on standard chow intake, in words","Male Sprague-Dawley rats [2]; Binge Sugar-Fat group, 12 h",no effect
same,"Effect on standard chow intake, in words","Male Sprague-Dawley rats [2]; Fat group, 1 h",no effect
same,"Effect on standard chow intake, in words","Male Sprague-Dawley rats [2]; Fat group, 12 h",no effect
same,"Effect on standard chow intake, in words","Male Sprague-Dawley rats [2]; Sugar group, 1 h",no effect
same,"Effect on standard chow intake, in words","Male Sprague-Dawley rats [2]; Sugar group, 12 h",stimulated chow intake
same,1-H Palatable Food Intake,Male Sprague-Dawley rats [3]; [4],9.9 ± 2.0 kcal
same,"Palatable food intake as a percent of intake after saline injections, 1-H Intake (%)",Male Sprague-Dawley rats [3]; [4],59%
same,"Palatable food intake as a percent of intake after saline injections, 1-H Intake (%)",Male Sprague-Dawley rats [3]; [5],70%
same,"Effect on palatable food (fat) intake, in words","Male Sprague-Dawley rats [3]; Binge Fat group, 1 h",no significant effect
same,12-H Palatable Food Intake,Male Sprague-Dawley rats [3]; [6],53.3 ± 4.5 kcal
same,"Palatable food intake as a percent of intake after saline injections, 12-H Intake (%)",Male Sprague-Dawley rats [3]; [6],91%
same,12-H Palatable Food Intake,Male Sprague-Dawley rats [3]; [7],49.9 ± 3.6 kcal
same,"Palatable food intake as a percent of intake after saline injections, 12-H Intake (%)",Male Sprague-Dawley rats [3]; [7],85%
same,"Effect on palatable food (fat) intake, in words","Male Sprague-Dawley rats [3]; Binge Fat group, 12 h",no significant effect
same,1-H Palatable Food Intake (Kcal),Male Sprague-Dawley rats [3]; [8],2.6 ± 0.4^a Kcal
same,"Palatable food intake as a percent of intake after saline injections, 1-H Intake (%)",Male Sprague-Dawley rats [3]; [8],92%
same,1-H Palatable Food Intake (Kcal),Male Sprague-Dawley rats [3]; [9],4.4 ± 0.7^a Kcal
same,"Palatable food intake as a percent of intake after saline injections, 1-H Intake (%)",Male Sprague-Dawley rats [3]; [9],158%
same,"Effect on palatable food (sugar) intake, in words","Male Sprague-Dawley rats [3]; Binge Sugar group, 1 h",significantly decreased
same,12-H Palatable Food Intake (Kcal),Male Sprague-Dawley rats [3]; [10],10.8 ± 1.8^r Kcal
same,"Palatable food intake as a percent of intake after saline injections, 12-H Intake (%)",Male Sprague-Dawley rats [3]; [10],85%
same,12-H Palatable Food Intake (Kcal),Male Sprague-Dawley rats [3]; [11],18.7 ± 2.4^r Kcal
same,"Palatable food intake as a percent of intake after saline injections, 12-H Intake (%)",Male Sprague-Dawley rats [3]; [11],92%
same,"Effect on palatable food (sugar) intake, in words","Male Sprague-Dawley rats [3]; Binge Sugar group, 12 h",significantly decreased
same,1-H Palatable Food Intake,Male Sprague-Dawley rats [3]; [12],17.6 ± 3.5 kcal
same,"Palatable food intake as a percent of intake after saline injections, 1-H Intake (%)",Male Sprague-Dawley rats [3]; [12],75%
same,1-H Palatable Food Intake,Male Sprague-Dawley rats [3]; [13],17.3 ± 1.7 kcal
same,"Palatable food intake as a percent of intake after saline injections, 1-H Intake (%)",Male Sprague-Dawley rats [3]; [13],74%
same,"Effect on palatable food (sugar-fat) intake, in words","Male Sprague-Dawley rats [3]; Binge Sugar-Fat group, 1 h",no effect
same,12-H Palatable Food Intake,Male Sprague-Dawley rats [3]; [14],83.3 ± 8.1 kcal
same,"Palatable food intake as a percent of intake after saline injections, 12-H Intake (%)",Male Sprague-Dawley rats [3]; [14],109%
same,12-H Palatable Food Intake,Male Sprague-Dawley rats [3]; [15],70.6 ± 3.4 kcal
same,"Palatable food intake as a percent of intake after saline injections, 12-H Intake (%)",Male Sprague-Dawley rats [3]; [15],92%
same,"Effect on palatable food (sugar-fat) intake, in words","Male Sprague-Dawley rats [3]; Binge Sugar-Fat group, 12 h",no effect
